Series [1] relates to NCI-H1975. In words: Induction of apoptosis in human NCI-H1975 cells xenografted in athymic nude BALB/c mouse at 1 or 4 mg/kg, ip administered for 4 weeks by hematoxylin and eosin staining based assay. Type of series: functional, organism-based. (In general: Xenograft models place foreign cells or tissue in a host animal.)
In series [2] the target is T1, DNA replication licensing factor MCM5 (Homo sapiens) (UniProt P33992).
T1 sequence (whole entry): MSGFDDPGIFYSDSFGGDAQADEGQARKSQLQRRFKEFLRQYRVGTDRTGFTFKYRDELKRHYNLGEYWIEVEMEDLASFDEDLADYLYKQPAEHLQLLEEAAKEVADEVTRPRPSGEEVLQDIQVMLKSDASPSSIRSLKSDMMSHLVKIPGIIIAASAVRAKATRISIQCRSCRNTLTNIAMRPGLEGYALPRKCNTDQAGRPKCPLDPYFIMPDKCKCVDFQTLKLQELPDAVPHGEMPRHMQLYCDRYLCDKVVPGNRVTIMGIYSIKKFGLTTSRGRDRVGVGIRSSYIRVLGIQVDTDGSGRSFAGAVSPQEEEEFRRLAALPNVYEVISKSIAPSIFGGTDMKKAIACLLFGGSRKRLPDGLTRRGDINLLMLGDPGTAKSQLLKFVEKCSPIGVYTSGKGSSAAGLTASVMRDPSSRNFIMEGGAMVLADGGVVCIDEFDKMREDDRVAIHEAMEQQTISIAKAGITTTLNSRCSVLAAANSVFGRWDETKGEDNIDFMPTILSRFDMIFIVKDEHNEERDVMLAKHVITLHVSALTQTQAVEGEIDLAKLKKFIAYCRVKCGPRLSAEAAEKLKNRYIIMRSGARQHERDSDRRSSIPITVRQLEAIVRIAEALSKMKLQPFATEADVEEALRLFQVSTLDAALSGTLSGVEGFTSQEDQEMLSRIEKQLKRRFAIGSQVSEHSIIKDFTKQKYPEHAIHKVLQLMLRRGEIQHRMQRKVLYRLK
In words: Induction of ubiquitination of MCM5 in human NCI-H1975 cells incubated for 24 hrs by immunoblot analysis (reference value: 1). The format is cell-based.

A short description of series [3]: Toxicity in athymic nude BALB/c mouse xenografted with human NCI-H1975 cells assessed as effect on serum aspartate transaminase at 1 or 4 mg/kg, ip administered for 4 weeks. The format is organism-based. The settings on record: in vivo, 672 h.
Series [4] is described as follows: Selectivity index, ratio of IC50 for human bronchial epithelial cells to IC50 for human CL1-0 cells. As to conditions: human bronchial epithelial cells versus CL1-0 cells, read-out: Ratio IC50. Type of series: toxicity.
In series [5] the target is DNA replication licensing factor MCM2 (Homo sapiens) (UniProt P49736). In words: Induction of ubiquitination of MCM2 in human NCI-H1975 cells in presence of MLN4924 incubated for 24 hrs followed by MLN4924 addition and measured after 6 hrs by immunoblot analysis. The format is cell-based.
Chain of DNA replication licensing factor MCM2 (Homo sapiens) (P49736 whole entry): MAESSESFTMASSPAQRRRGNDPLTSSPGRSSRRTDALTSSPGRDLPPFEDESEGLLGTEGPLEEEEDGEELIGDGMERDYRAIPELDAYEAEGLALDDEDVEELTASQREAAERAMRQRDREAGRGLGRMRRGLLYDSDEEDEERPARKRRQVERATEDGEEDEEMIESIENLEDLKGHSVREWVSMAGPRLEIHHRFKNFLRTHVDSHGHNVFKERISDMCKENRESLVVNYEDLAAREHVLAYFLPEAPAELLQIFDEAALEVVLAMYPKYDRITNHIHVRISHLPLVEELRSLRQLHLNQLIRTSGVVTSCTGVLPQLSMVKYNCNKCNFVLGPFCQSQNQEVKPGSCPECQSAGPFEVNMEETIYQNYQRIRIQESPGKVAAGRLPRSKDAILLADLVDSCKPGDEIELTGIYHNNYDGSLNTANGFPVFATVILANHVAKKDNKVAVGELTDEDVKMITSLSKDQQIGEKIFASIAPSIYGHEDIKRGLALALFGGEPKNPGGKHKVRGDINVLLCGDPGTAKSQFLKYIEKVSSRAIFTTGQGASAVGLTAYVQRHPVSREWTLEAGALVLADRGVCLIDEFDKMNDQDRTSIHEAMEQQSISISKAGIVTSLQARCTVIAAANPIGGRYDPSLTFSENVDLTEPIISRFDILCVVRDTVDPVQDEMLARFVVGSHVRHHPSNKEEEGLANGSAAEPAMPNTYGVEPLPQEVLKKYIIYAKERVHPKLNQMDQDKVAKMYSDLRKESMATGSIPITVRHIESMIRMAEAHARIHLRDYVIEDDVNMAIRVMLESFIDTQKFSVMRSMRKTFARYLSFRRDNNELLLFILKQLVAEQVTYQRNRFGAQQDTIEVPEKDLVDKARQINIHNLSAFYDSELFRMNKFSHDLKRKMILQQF
In series [6] the target is DNA replication licensing factor MCM7 (Homo sapiens) (UniProt P33993). In words: Induction of ubiquitination of MCM7 in human PC9 cells incubated for 24 hrs by immunoblot analysis. The format is cell-based. As to conditions: PC-9. For orientation: A western blot detects proteins with antibodies after separation by electrophoresis.
Chain of DNA replication licensing factor MCM7 (Homo sapiens) (P33993 whole entry): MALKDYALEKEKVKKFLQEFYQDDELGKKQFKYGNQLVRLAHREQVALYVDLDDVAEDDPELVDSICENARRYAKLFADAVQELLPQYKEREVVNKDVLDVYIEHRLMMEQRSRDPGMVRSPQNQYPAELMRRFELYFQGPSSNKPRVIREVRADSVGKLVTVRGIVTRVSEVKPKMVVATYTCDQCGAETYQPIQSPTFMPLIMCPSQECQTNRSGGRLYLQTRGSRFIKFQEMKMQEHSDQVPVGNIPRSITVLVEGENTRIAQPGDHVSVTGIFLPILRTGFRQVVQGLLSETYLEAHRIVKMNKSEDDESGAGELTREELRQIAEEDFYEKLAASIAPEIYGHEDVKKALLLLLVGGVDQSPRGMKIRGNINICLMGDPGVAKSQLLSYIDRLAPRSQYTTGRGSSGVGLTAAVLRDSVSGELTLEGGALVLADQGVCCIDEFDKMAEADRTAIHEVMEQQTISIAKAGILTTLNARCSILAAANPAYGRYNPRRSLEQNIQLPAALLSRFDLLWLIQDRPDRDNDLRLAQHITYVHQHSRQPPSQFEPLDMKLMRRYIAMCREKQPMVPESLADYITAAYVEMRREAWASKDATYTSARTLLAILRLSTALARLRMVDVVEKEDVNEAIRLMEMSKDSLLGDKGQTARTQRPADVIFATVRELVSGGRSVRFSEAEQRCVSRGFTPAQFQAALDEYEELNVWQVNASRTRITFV
Series [7] deals with DNA replication licensing factor MCM2 (Homo sapiens) (UniProt P49736). In words: Induction of ubiquitination of FLAG-tagged MCM2 in human NCI-H1975 cells incubated for 24 hrs by magnetic beads technique based immunoblot analysis. Type of series: cell-based.
A further series deals with PC-9. In words: Antiproliferative activity against human PC9 cells assessed as reduction in cell viability incubated for 72 hrs by SRB assay. The format is functional, cell-based. The settings on record: PC-9, 72 h. On the technique in general: In SRB staining, fixed cells bind dye roughly in proportion to their protein.
Series [8] relates to NCI-H1975. In words: Induction of apoptosis in human NCI-H1975 cells assessed as increase in cleaved caspase 8 level at 140 nM incubated upto 72 hrs by immunoblotting analysis. The format is functional, cell-based.
For series [9], the target named is DNA replication licensing factor MCM2 (Homo sapiens) (UniProt P49736). In words: Induction of ubiquitination of MCM2 in human NCI-H1975 cells at 140 nM in presence of MG132 incubated for 48 hrs followed by MG132 addition and measured after 12 hrs by immunoblot analysis. The format is cell-based.
In series [10] the target is T1, DNA replication licensing factor MCM5 (Homo sapiens). In words: Induction of ubiquitination of MCM5 in human NCI-H1975 cells incubated for 72 hrs by immunoblot analysis (reference value: 1). Type of series: cell-based.
Series [11] is described as follows: Toxicity in athymic nude BALB/c mouse xenografted with human NCI-H1975 cells assessed as effect on serum alanine transaminase at 1 or 4 mg/kg, ip administered for 4 weeks. Type of series: organism-based. As to conditions: in vivo, 672 h.
The nature of series [12]: Toxicity in athymic nude BALB/c mouse xenografted with human NCI-H1975 cells assessed as effect on liver at 1 or 4 mg/kg, ip administered for 4 weeks. The format is organism-based. The settings on record: in vivo, 672 h.
Series [13] concerns NCI-H1975. In words: Antitumor activity against human NCI-H1975 cells xenografted in athymic nude BALB/c mouse assessed as tumor growth at 1 mg/kg, ip administered for 4 weeks (reference value: 1217 +/- 516.6 cu.mm). The format is functional.
Series [14] has as its target T2, DNA replication licensing factor MCM4 (Homo sapiens) (UniProt P33991).
T2 sequence (whole entry): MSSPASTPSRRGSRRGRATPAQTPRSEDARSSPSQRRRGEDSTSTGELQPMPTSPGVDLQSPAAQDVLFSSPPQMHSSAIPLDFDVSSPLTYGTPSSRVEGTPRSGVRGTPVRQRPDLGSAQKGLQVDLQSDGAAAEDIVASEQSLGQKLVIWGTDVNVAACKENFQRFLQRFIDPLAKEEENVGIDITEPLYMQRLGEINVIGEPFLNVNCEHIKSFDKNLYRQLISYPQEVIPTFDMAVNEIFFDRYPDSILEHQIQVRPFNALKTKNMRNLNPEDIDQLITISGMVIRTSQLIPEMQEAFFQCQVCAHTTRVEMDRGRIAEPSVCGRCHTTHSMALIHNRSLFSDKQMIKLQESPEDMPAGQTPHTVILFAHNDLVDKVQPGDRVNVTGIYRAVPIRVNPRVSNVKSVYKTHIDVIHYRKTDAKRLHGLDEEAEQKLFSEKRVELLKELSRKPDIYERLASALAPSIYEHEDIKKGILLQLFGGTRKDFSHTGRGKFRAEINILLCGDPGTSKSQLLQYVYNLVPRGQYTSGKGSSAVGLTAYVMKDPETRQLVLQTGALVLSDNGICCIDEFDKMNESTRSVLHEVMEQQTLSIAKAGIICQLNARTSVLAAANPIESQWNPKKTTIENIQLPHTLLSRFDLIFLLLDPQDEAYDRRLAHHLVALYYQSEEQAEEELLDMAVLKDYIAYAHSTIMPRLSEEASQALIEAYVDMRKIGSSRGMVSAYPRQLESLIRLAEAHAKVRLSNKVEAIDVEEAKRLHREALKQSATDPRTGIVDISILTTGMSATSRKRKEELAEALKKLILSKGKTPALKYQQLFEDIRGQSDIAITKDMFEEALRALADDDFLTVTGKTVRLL
In words: Induction of ubiquitination of MCM4 in human NCI-H1975 cells incubated for 24 hrs by immunoblot analysis (reference value: 1). The format is cell-based.

Series [15] can be described thus: Selectivity index, ratio of IC50 for human bronchial epithelial cells to IC50 for human CL1-5 cells. The format is toxicity. The settings on record: human bronchial epithelial cells versus CL1-5 cells, read-out: Ratio IC50.

Structures are written as SMILES. Calls of active or inactive are those of the source. The calls are words filed in the database; no cut-off is given here.

By IC50 is commonly meant the midpoint of a concentration-inhibition curve. Take `Cc1oc2c(c1C(=O)NCCCn1ccnc1)C(=O)c1ccccc1C2=O`: the result (in the series on NCI-H1975 [1]; in [6]; in series [7]; in the series with NCI-H1975 [8]; in series [9]) was Active. For the same compound, the Activity in [2] was 0.8; in [3], “Non-Toxic”; in series [10], 0.8; in [11] it was “Non-Toxic”; in series [12], “Non-Toxic”; in the series with NCI-H1975 [13], 701.2 mm3. The compound further displayed an Activity in series [14] of 0.4. For the same compound, the selectivity ratio in [4] and in series [15] was greater than 10 each time. Moreover, the outcome in [5] was inactive. Also, the IC50 with PC-9 is less than 100 nM.

These data come from ChEMBL document CHEMBL4602694, “Suppression of Drug-Resistant Non-Small-Cell Lung Cancer with Inhibitors Targeting Minichromosomal Maintenance Protein” (J Med Chem, 2020).
